In patent US11673901B2, “Polycyclic compounds as allosteric SHP2 inhibitors” (Revolution Medicines, Inc., priority 2017, dated 2023):
pIC50: −log10 of the molar value.

target: SHP2 (Homo sapiens (Human), UniProt Q06124); test: SHP2 allosteric inhibition assay (DiFMUP prompt fluorescence); type: biochemical; conditions: 0.2 nM SHP2 activated with 0.5 μM Activating Peptide 1 or 2; substrate DiFMUP; Table 1
Excerpt: Without wishing to be bound by theory, SHP2 is allosterically activated through binding of bis-tyrosyl-phosphorylated peptides to its Src Homology 2 (SH2) domains. The latter activation step leads to the release of the auto-inhibitory interface of SHP2, which in turn renders the SHP2 protein tyrosine phosphatase (PTP) active and available for substrate recognition and reaction catalysis. The catalytic activity of SHP2 was monitored using the surrogate substrate DiFMUP in a prompt fluorescence assay format.
The phosphatase reactions were performed at room temperature in 96-well black polystyrene plate, flat bottom, non-binding surface (Corning, Cat #3650) using a final reaction volume of 100 μL and the following assay buffer conditions: 50 mM HEPES, pH 7.2, 100 mM NaCl, 0.5 mM EDTA, 0.05% P-20, 1 mM DTT.
The inhibition of SHP2 by compounds of the invention (concentrations varying from 0.00005-10 μM) was monitored using an assay in which 0.2 nM of SHP2 was incubated with 0.5 μM of Activating Peptide 1 (sequence: H2N-LN(pY)IDLDLV(dPEG8)LST(pY)ASINFQK-amide) or Activating Peptide 2 (sequence: H2N-LN(pY)AQLWHA(dPEG8)LTI(pY)ATIRRF-amide). After 30-60-minutes incubation at 25° C., the surrogate substrate DiFMUP (Invitrogen, Cat #D6567) was added to the reaction and activity was determined by a kinetic read using a microplate reader (Envision, Perkin-Elmer or Spectramax M5, Molecular Devices). The excitation and emission wavelengths were 340 nm and 450 nm, respectively. Initial rates were determined from a linear fit of the data, and the inhibitor dose response curves were analyzed using normalized IC50 regression curve fitting with control based normalization.

| pIC50 | SMILES |
| --- | --- |
| 9.00 | C[C@@H]1OCC2(CCN(c3ncc(Sc4ccnc(N)c4Cl)c4nccn34)CC2)[C@@H]1N [Compound 1 (Example 1)] |
| 6.92 | CC1(N)CCN(c2ncc(Sc3ccnc(N)c3Cl)c3nccn23)CC1 [Compound 2 (Example 2)] |
| 8.00 | Cc1nc(N2CCC3(CC2)CO[C@@H](C)[C@H]3N)n2cnnc2c1-c1cccc(Cl)c1Cl [Compound 6 (Example 6)] |

| SMILES | pIC50 |
| --- | --- |
| C[C@@H]1OCC2(CCN(c3ncc(Sc4ccnc(N)c4Cl)c4ncnn34)CC2)[C@@H]1N [Compound 4 (Example 4)] | 7.54 |

same assay, conditions: 0.2 nM SHP2 activated with 0.5 μM Activating Peptide 1 or 2; substrate DiFMUP; Table 2, class symbols

| pIC50 | SMILES |
| --- | --- |
| ≥ 7.30 | C[C@@H]1OCC2(CCN(c3ncc(Sc4ccnc(N)c4Cl)c4nccn34)CC2)[C@@H]1N [Compound 1, (3S,4S)-8-{8-[(2-amino-3-chloropyridin-4-yl)sulfanyl]imidazo[1,2-c]pyrimidin-5-yl}-3-methyl-2-oxa-8-azaspiro[4.5]decan-4-amine] |
| 6.30 to 7.30 | CC1(N)CCN(c2ncc(Sc3ccnc(N)c3Cl)c3nccn23)CC1 [Compound 2, 4-{[5-(4-amino-4-methylpiperidin-1-yl)imidazo[1,2-c]pyrimidin-8-yl]sulfanyl}-3-chloropyridin-2-amine] |
| < 6.30 | CC1(N)CCN(c2ncc(-c3cccc(Cl)c3Cl)c3nccn23)CC1 [Compound 3, 1-[8-(2,3-dichlorophenyl)imidazo[1,2-c]pyrimidin-5-yl]-4-methylpiperidin-4-amine] |
| < 6.30 | N[C@@H]1CCCC12CCN(c1ccc(-c3cccc(Cl)c3Cl)c3cncn13)CC2 [Compound 5, (1R)-8-[8-(2,3-dichlorophenyl)imidazo[1,5-a]pyridin-5-yl]-8-azaspiro[4.5]decan-1-amine] |
| ≥ 7.30 | Cc1nc(N2CCC3(CC2)CO[C@@H](C)[C@H]3N)n2cnnc2c1-c1cccc(Cl)c1Cl [Compound 6, (3S,4S)-8-[8-(2,3-dichlorophenyl)-7-methyl-[1,2,4]triazolo[4,3-c]pyrimidin-5-yl]-3-methyl-2-oxa-8-azaspiro[4.5]decan-4-amine] |
| 6.30 to 7.30 | CC1(N)CCN(c2ncc(Sc3ccnc(N)c3Cl)c3nncn23)CC1 [Compound 7, 4-{[5-(4-amino-4-methylpiperidin-1-yl)-[1,2,4]triazolo[4,3-c]pyrimidin-8-yl]sulfanyl}-3-chloropyridin-2-amine] |
| ≥ 7.30 | Cc1nc(N2CCC3(CC2)CO[C@@H](C)[C@H]3N)n2ccnc2c1-c1cccc(Cl)c1Cl [Compound 8, (3S,4S)-8-[8-(2,3-dichlorophenyl)-7-methylimidazo[1,2-c]pyrimidin-5-yl]-3-methyl-2-oxa-8-azaspiro[4.5]decan-4-amine] |
| ≥ 7.30 | COc1cccc(-c2c(C)nc(N3CCC4(CC3)CO[C@@H](C)[C@H]4N)n3ccnc23)c1Cl [Compound 9, (3S,4S)-8-[8-(2-chloro-3-methoxyphenyl)-7-methylimidazo[1,2-c]pyrimidin-5-yl]-3-methyl-2-oxa-8-azaspiro[4.5]decan-4-amine] |
| ≥ 7.30 | C[C@@H]1OCC2(CCN(c3ncc(Sc4ccnc(N5CC(O)C5)c4Cl)c4nccn34)CC2)[C@@H]1N [Compound 10, 1-[4-({5-[(3S,4S)-4-amino-3-methyl-2-oxa-8-azaspiro[4.5]decan-8-yl]imidazo[1,2-c]pyrimidin-8-yl}sulfanyl)-3-chloropyridin-2-yl]azetidin-3-ol] |
| ≥ 7.30 | C[C@@H]1OCC2(CCN(c3ncc(Sc4cccc(Cl)c4Cl)c4nccn34)CC2)[C@@H]1N [Compound 11, (3S,4S)-8-{8-[(2,3-dichlorophenyl)sulfanyl]imidazo[1,2-c]pyrimidin-5-yl}-3-methyl-2-oxa-8-azaspiro[4.5]decan-4-amine] |
| ≥ 7.30 | C[C@@H]1OCC2(CCN(c3ncc(Sc4ccnc(N5CC(S(C)(=O)=O)C5)c4Cl)c4nccn34)CC2)[C@@H]1N [Compound 12, (3S,4S)-8-(8-{[3-chloro-2-(3-methanesulfonylazetidin-1-yl)pyridin-4-yl]sulfanyl}imidazo[1,2-c]pyrimidin-5-yl)-3-methyl-2-oxa-8-azaspiro[4.5]decan-4-amine] |
| ≥ 7.30 | C[C@@H]1OCC2(CCN(c3ncc(Sc4ccnc(N5CC(C#N)C5)c4Cl)c4nccn34)CC2)[C@@H]1N [Compound 13, 1-[4-({5-[(3S,4S)-4-amino-3-methyl-2-oxa-8-azaspiro[4.5]decan-8-yl]imidazo[1,2-c]pyrimidin-8-yl}sulfanyl)-3-chloropyridin-2-yl]azetidine-3-carbonitrile] |
| 6.30 to 7.30 | C[C@@H]1OCC2(CCN(c3ncc(Sc4cccc(C(=O)N(C)C)c4Cl)c4nccn34)CC2)[C@@H]1N [Compound 14, 3-({5-[(3S,4S)-4-amino-3-methyl-2-oxa-8-azaspiro[4.5]decan-8-yl]imidazo[1,2-c]pyrimidin-8-yl}sulfanyl)-2-chloro-N,N-dimethylbenzamide] |
| ≥ 7.30 | C[C@@H]1OCC2(CCN(c3ncc(Sc4ccnc5[nH]ccc45)c4nccn34)CC2)[C@@H]1N [Compound 15, (3S,4S)-3-methyl-8-(8-{1H-pyrrolo[2,3-b]pyridin-4-ylsulfanyl}imidazo[1,2-c]pyrimidin-5-yl)-2-oxa-8-azaspiro[4.5]decan-4-amine] |
| 6.30 to 7.30 | C[C@@H]1OCC2(CCN(c3ncc(Sc4ccnc(N)c4)c4nccn34)CC2)[C@@H]1N [Compound 16, (3S,4S)-8-{8-[(2-aminopyridin-4-yl)sulfanyl]imidazo[1,2-c]pyrimidin-5-yl}-3-methyl-2-oxa-8-azaspiro[4.5]decan-4-amine] |
| ≥ 7.30 | C[C@@H]1OCC2(CCN(c3ncc(Sc4ccnc5nc[nH]c45)c4nccn34)CC2)[C@@H]1N [Compound 17, (3S,4S)-8-(8-{1H-imidazo[4,5-b]pyridin-7-ylsulfanyl}imidazo[1,2-c]pyrimidin-5-yl)-3-methyl-2-oxa-8-azaspiro[4.5]decan-4-amine] |
| 6.30 to 7.30 | Cc1cc(Sc2cnc(N3CCC4(CC3)CO[C@@H](C)[C@H]4N)n3ccnc23)cc(N)n1 [Compound 18, (3S,4S)-8-{8-[(2-amino-6-methylpyridin-4-yl)sulfanyl]imidazo[1,2-c]pyrimidin-5-yl}-3-methyl-2-oxa-8-azaspiro[4.5]decan-4-amine] |
| < 6.30 | Nc1nccc(Sc2cnc(N3CC4(CC(N)C4)C3)n3ccnc23)c1Cl [Compound 19, 2-{8-[(2-amino-3-chloropyridin-4-yl)sulfanyl]imidazo[1,2-c]pyrimidin-5-yl}-2-azaspiro[3.3]heptan-6-amine] |
| 6.30 to 7.30 | Nc1nccc(Sc2cnc(N3CCC4(CC3)CNC4)n3ccnc23)c1Cl [Compound 20, 3-chloro-4-[(5-{2,7-diazaspiro[3.5]nonan-7-yl}imidazo[1,2-c]pyrimidin-8-yl)sulfanyl]pyridin-2-amine] |
| < 6.30 | Nc1nccc(Sc2cnc(N3CC[C@H](N)C3)n3ccnc23)c1Cl [Compound 21, 4-({5-[(3S)-3-aminopyrrolidin-1-yl]imidazo[1,2-c]pyrimidin-8-yl}sulfanyl)-3-chloropyridin-2-amine] |
| < 6.30 | NCCC1CN(c2ncc(Sc3ccnc(N)c3Cl)c3nccn23)C1 [Compound 22, 4-({5-[3-(2-aminoethyl)azetidin-1-yl]imidazo[1,2-c]pyrimidin-8-yl}sulfanyl)-3-chloropyridin-2-amine] |
| < 6.30 | NCCNc1ncc(Sc2ccnc(N)c2Cl)c2nccn12 [Compound 23, N1-{8-[(2-amino-3-chloropyridin-4-yl)sulfanyl]imidazo[1,2-c]pyrimidin-5-yl}ethane-1,2-diamine] |
| 6.30 to 7.30 | NC[C@H]1CCN(c2ncc(Sc3ccnc(N)c3Cl)c3nccn23)C1 [Compound 24, 4-({5-[(3R)-3-(aminomethyl)pyrrolidin-1-yl]imidazo[1,2-c]pyrimidin-8-yl}sulfanyl)-3-chloropyridin-2-amine] |
| 6.30 to 7.30 | Nc1nccc(Sc2cnc(N3C[C@@H]4[C@@H](N)[C@@H]4C3)n3ccnc23)c1Cl [Compound 25, (1R,5S,6R)-3-{8-[(2-amino-3-chloropyridin-4-yl)sulfanyl]imidazo[1,2-c]pyrimidin-5-yl}-3-azabicyclo[3.1.0]hexan-6-amine] |
| < 6.30 | CC1(N)CN(c2ncc(Sc3ccnc(N)c3Cl)c3nccn23)C1 [Compound 26, 4-{[5-(3-amino-3-methylazetidin-1-yl)imidazo[1,2-c]pyrimidin-8-yl]sulfanyl}-3-chloropyridin-2-amine] |
| < 6.30 | Nc1nccc(Sc2cnc(N3CCNCC3)n3ccnc23)c1Cl [Compound 27, 3-chloro-4-{[5-(piperazin-1-yl)imidazo[1,2-c]pyrimidin-8-yl]sulfanyl}pyridin-2-amine] |
| < 6.30 | Nc1nccc(Sc2cnc(N3CC[C@@H](N)C3)n3ccnc23)c1Cl [Compound 28, 4-({5-[(3R)-3-aminopyrrolidin-1-yl]imidazo[1,2-c]pyrimidin-8-yl}sulfanyl)-3-chloropyridin-2-amine] |

| SMILES | pIC50 |
| --- | --- |
| C[C@@H]1OCC2(CCN(c3ncc(Sc4ccnc(N)c4Cl)c4ncnn34)CC2)[C@@H]1N [Compound 4, (3S,4S)-8-{8-[(2-amino-3-chloropyridin-4-yl)sulfanyl]-[1,2,4]triazolo[1,5-c]pyrimidin-5-yl}-3-methyl-2-oxa-8-azaspiro[4.5]decan-4-amine] | ≥ 7.30 |
